Where two headings read alike, the source gives them in different places.
How the values were obtained:
[1] = test system: Influenza H5 N1/Duck/MN/1525/81; assay: organism not typed
[2] = test system: Parainfluenza virus 3/14702; assay: CPE inhibition assay (visual and neutral red); conditions: for EC50 (cell spans EC50, CC50, SI): MA-104 or MDCK, Visual or Neutral Red, concentration range 0.3-300
[3] = test system: Influenza B/Florida/4/2006; assay: CPE inhibition assay (visual and neutral red); conditions: for EC50: Influenza B virus; for EC50 (cell spans EC50, CC50, SI): MA-104 or MDCK, Visual or Neutral Red, concentration range 0.3-300
[4] = test system: MucilAir™-Pool human airway epithelium infected with SARS-CoV-2; assay: Tissue integrity (TEER) upon SARS-CoV-2 infection in MucilAir-Pool, Phase 2; type: cell-based
[5] = test system: MucilAir™-Pool human airway epithelium; assay: Lactate dehydrogenase (LDH) cytotoxicity assay on MucilAir-Pool, Phase 1; type: cell-based
Procedure: (§1) The testing strategies includes basolateral exposure of test compounds on MucilAir™-Pool.
(§2) Global markers of Toxicity included (1) Tissue integrity monitoring: Trans-epithelial electrical resistance (TEER) measurement and (2) Cytotoxicity: Lactate dehydrogenase (LDH) assay.
Repeated basolateral exposure once a day of test compounds on MucilAir™-Pool. Transepithelial electrical resistance (TEER) was assessed each day. LDH release indicating cytotoxicity, was measured at Day 2 and 3 (24 hours accumulation). Cilia beating frequency (CBF) was measured once, at the end of the experiment, at Day 3. (FIG. 7) […]
Lactate dehydrogenase is a stable cytoplasmic enzyme that is rapidly released into the culture medium upon rupture of the plasma membrane. 100 μL basolateral medium collected at each time-point was incubated with the reaction mixture of the Cytotoxicity Detection Kit^PLUS, following manufacturer's instructions (Sigma, Roche, 11644793001). The amount of the released LDH was then quantified by measuring the absorbance of each sample at 490 nm with a microplate reader. To determine the percentage of cytotoxicity, the following equation was used (A=absorbance values): Cytotoxicity (%)=(A (exp value)−A (low control)/A (high control)−A (low control))*100
The high control value was obtained by 10% Triton X-100 treatment 24 hours prior to the assay. Triton X-100 causes a massive LDH release and corresponds to 100% cytotoxicity.

[6] = test system: MucilAir™-Pool human airway epithelium; assay: Cilia beating frequency (CBF) on MucilAir-Pool, Phase 1; type: cell-based; conditions: Day 3, room temperature
Procedure: Effect on cilia included cilia motion: Cilia Beating Frequency (CBF).
(§3) Repeated basolateral exposure once a day of test compounds on MucilAir™-Pool. Transepithelial electrical resistance (TEER) was assessed each day. LDH release indicating cytotoxicity, was measured at Day 2 and 3 (24 hours accumulation). Cilia beating frequency (CBF) was measured once, at the end of the experiment, at Day 3. (FIG. 7)
(§4) Number of concentrations: 3 doses • Celgosivir=100, 30 and […] on basolateral side in 0.2% DMSO and 2% fetal bovine serum
Cilia beating frequency was monitored using a MAKO G030B camera connected to a ZEISS Primovert microscope with a 5× objective.
CBF measurement is based on the capture of 256 frames at high frequency rate (125 frames per second) at room temperature via the specific package of software. The frequency is expressed as Hertz and was calculated using an Epithelix software.

endogenous esterases = conditions: Kang (1996) Glycobiology; cited from earlier work
[7] = Pharmacokinetic simulations using CELADEN castanospermine parameters; design: species or system human; conditions: linear extrapolation
Procedure: It is known that a steady state minimum castanospermine concentration of 400 nanograms/ml is associated with a 50 mg/kg BID dose in mice and that the antiviral effect of celgosivir in vivo seems to be correlated with the minimum steady state concentration of castanospermine. […] International Publication No. WO 2014/143907 discloses pharmacokinetic parameters for castanospermine for the CELADEN study. […] Extrapolating linearly, therefore, the minimum protective dose (achieving 400 nanograms/ml steady state minimum) is approximately 40 mg every 6h, 75 mg every 8 h and 225 mg every 12 h. Further, WO 2014/143907 discloses that the CELADEN study regimen produce a steady state maximum castanospermine concentration of 5100 nanograms/ml. […] The FDA has published generic scaling factors to adjust mg/kg dosing in animals to mg/kg dosing in humans. Generically for mice, that scaling factor is 12. Therefore, 50 mg/kg BID is equivalent to a dose of 4.2 mg/kg BID in humans, which for a 60 kg human is equivalent to 250 mg. The same dose administered three or four times daily is equivalent to 167 mg and 125 mg and 2.8 and 2.1 mg/kg respectively. In a 60 kg human, the maximum single dose is 6.7 mg/kg, and the maximum daily dose is 10 mg/kg.

Human rhinovirus 14/1059 = assay: CPE inhibition assay (visual and neutral red); conditions: for EC50 (cell spans EC50, CC50, SI): MA-104 or MDCK, Visual or Neutral Red, concentration range 0.3-300; for EC50: Rhinovirus B
[8] = test system: Influenza A H1N1/California/07/2009; assay: CPE inhibition assay (visual and neutral red); conditions: for EC50: Influenza A virus, H1N1; for EC50 (cell spans EC50, CC50, SI): MA-104 or MDCK, Visual or Neutral Red, concentration range 0.3-300
[9] = cited from earlier work
[10] = test system: Influenza H5 N1/Duck/MN/1525/81
[11] = over the tolerated dose range; cited from earlier work
SARS-CoV-2 [12] = assay: SARS-CoV-2 apical infectious titre in MucilAir-Pool (TCID50); conditions: for reduction of SARS-CoV-2 titre at apical side: 48 hours
[13] = test system: Influenza B/Brisbane/60/2008; assay: CPE inhibition assay (visual and neutral red); conditions: for EC50: Influenza B virus; for EC50 (cell spans EC50, CC50, SI): MA-104 or MDCK, Visual or Neutral Red, concentration range 0.3-300
SARS-CoV-2 [14] = assay: SARS-CoV-2 apical replication in MucilAir-Pool (genome copies ORF1b-nsp14, Taqman RT-PCR); type: cell-based
[15] = test system: MucilAir™-Pool human airway epithelium; assay: Tissue integrity (TEER) of uninfected MucilAir-Pool, Phase 1; type: cell-based; conditions: all three tested concentrations, up to three days; threshold 100 Ω·cm^2
Procedure: as §1, §2, §3, §4
TEER is a dynamic parameter that reflects the state of epithelia and is typically between 200 to 600 Ω·cm^2. An increase of the TEER value reflects a blockage of the ion channel activities. A notable decrease of the TEER values (but >100 Ω·cm^2) could be observed in certain cases, reflecting an activation of the ion channels. Disruption of cellular junction or holes in the epithelia result in TEER values below 100 Ω·cm^2. […]
After addition of 200 μl of 0.9% saline solution to the apical compartment of MucilAir™ cultures, resistance was measured with an EVOMX volt-ohm-meter (World Precision Instruments UK, Stevenage) for each condition. […]

[16] = mice; 50 mg/kg BID dose; cited from earlier work

CCCC(=O)O[C@H]1CN2CC[C@H](O)[C@@H]2[C@@H](O)[C@@H]1O [Celgosivir, 6-O-butanoyl castanospermine]
EC50 [1]: > 300 µM | EC50 [2]: > 300 µM | EC50 (cell spans EC50, CC50, SI) [2]: Not active | EC50 [3]: > 300 µM | EC50 (cell spans EC50, CC50, SI) [3]: Not active | effect against virus-induced cytopathology ([4]; 3 microM): diminished extent | SARS-CoV-2 induced decrease of TEER ([4]; 30 and 100 μM, 48 and 72 hours post-inoculation): prevented | effect against virus-induced cytopathology ([4]; 30 and 100 microM): protective effective | cytotoxicity (LDH release) ([5]; Day 2 and 3, threshold limit 5% cytotoxicity): No cytotoxicity | evidence of cytotoxicity (TEER, cytotoxicity and CBF values versus controls) ([5]; concentrations at or below 100 microM): did not exhibit evidence of cytoxicity | cilia motion (cilia beating frequency) [6]: did not modify significantly | conversion to castanospermine (endogenous esterases): rapidly converted by endogenous esterases to castanospermine | crossing of cell membranes (endogenous esterases): readily crosses cell membranes | minimum protective dose (achieving 400 nanograms/ml steady state minimum) ([7]; every 6h): approximately 40 mg | minimum protective dose (achieving 400 nanograms/ml steady state minimum) ([7]; every 8 h): ~75 mg | minimum protective dose (achieving 400 nanograms/ml steady state minimum) ([7]; every 12 h): ~225 mg | EC50 (cell spans EC50, CC50, SI) (Human rhinovirus 14/1059): Not active | EC50 (Human rhinovirus 14/1059): > 300 µM | EC50 [8]: > 300 µM | EC50 (cell spans EC50, CC50, SI) [8]: Not active | adverse event profile ([9]; CELADEN study dose): higher incidence of GI effects, but not increased severity | maximum daily dose as a total dose ([9]; human, in theory): 600 mg | maximum dose as a single dose ([9]; human, in theory): 400 mg | EC50 (cell spans EC50, CC50, SI) [10]: Not active | pharmacokinetics versus dose [11]: linear with dose | reduction of SARS-CoV-2 titre at apical side (SARS-CoV-2 [12]; 30 mM (so in the source)): 1 log10 | reduction of SARS-CoV-2 titre at apical side (SARS-CoV-2 [12]; 100 mM (so in the source)): 1.9 log10 | yield of viral progeny (SARS-CoV-2 [12]; 3 microM): diminished extent | yield of viral progeny (SARS-CoV-2 [12]; 30 and 100 microM): decreased | reducing effect on SARS-CoV-2 titre (SARS-CoV-2 [12]; 72 hours, concentration not given): 1.1 log | EC50 [13]: > 300 µM | EC50 (cell spans EC50, CC50, SI) [13]: Not active | reduction of viruses (genome copies) (SARS-CoV-2 [14]; 30 mM (so in the source), 48 hours): 1.2 log10 | reduction of viruses (genome copies) (SARS-CoV-2 [14]; 30 mM (so in the source), later time point (72 hours)): 0.9 log10 | reduction of viruses (genome copies) (SARS-CoV-2 [14]; 100 mM (so in the source), 48 hours): 1.4 log10 | reduction of viruses (genome copies) (SARS-CoV-2 [14]; 100 mM (so in the source), later time point (72 hours)): 1 log10 | inhibition of SARS-CoV-2 replication, dose relation (SARS-CoV-2 [14]; 3 doses, basolateral once a day for 3 days): dose dependent inhibition | SARS-CoV-2 replication (SARS-CoV-2 [14]; 3 microM): diminished extent | SARS-CoV-2 replication (SARS-CoV-2 [14]; 30 and 100 microM): decreased | Epithelial barrier function (TEER) [15]: > 100 Ω·cm^2

NC(=O)c1ncn([C@@H]2O[C@H](CO)[C@@H](O)[C@H]2O)n1 [Ribavirin, reference compound]
EC50 [1]: < 10 µM | EC50 [2]: < 10 µM | EC50 [3]: < 10 µM | EC50 (Human rhinovirus 14/1059): < 10 µM | EC50 [8]: < 10 µM | EC50 [13]: < 10 µM

O[C@H]1[C@H](O)[C@@H](O)CN2CC[C@H](O)[C@H]12 [castanospermine, (1S,6S,7R,8aR)-Tetrahydroxyoctahydroindolizine]
EC50 [1]: > 300 µM | EC50 [2]: > 300 µM | EC50 (cell spans EC50, CC50, SI) [2]: Not active | EC50 [3]: > 300 µM | EC50 (cell spans EC50, CC50, SI) [3]: Not active | steady state minimum castanospermine concentration [16]: 400 nanograms/ml | EC50 (cell spans EC50, CC50, SI) (Human rhinovirus 14/1059): Not active | EC50 (Human rhinovirus 14/1059): > 300 µM | EC50 [8]: > 300 µM | EC50 (cell spans EC50, CC50, SI) [8]: Not active | steady state maximum castanospermine concentration ([9]; CELADEN study regimen): 5100 nanograms/ml | EC50 (cell spans EC50, CC50, SI) ([10]; MA-104 or MDCK, Visual or Neutral Red, concentration range 0.3-300): Not active | EC50 [13]: > 300 µM | EC50 (cell spans EC50, CC50, SI) [13]: Not active

Triton X-100 [reference compound]
induced toxicity (LDH release) ([5]; 10% Triton X-100 solution, apical, 24 h, high control): 100%
